Measurements from US11446378B2, “Inhibitors of ephrin B1 for tumor treatment” (SANFORD HEALTH, priority 2017, dated 2022).

Tested on: PC12 cells
Assay: PC12 neurite outgrowth assay (β-III tubulin quantification by CX7)
Type: cell-based, rat
Experimental: To test our hypothesis that tumor released exosomes induce neo-neurogenesis, we utilized PC12 cells, a rat pheochromocytoma cell line, as an in vitro screen. When stimulated with NGF (100 ng/ml), PC12 cells differentiate into neuron-like cells and extend neurites. We collected 10 ml of blood along with matched tumor tissue from three head and neck cancer patients (patient samples Pt1, Pt2, Pt3). We similarly collected blood from 3 healthy volunteers (Nl1, Nl2, Nl3) as well as adult tonsil tissue (TL). The tonsil was chosen as control tissue since the majority of HPV+ OPSCCs arise in the tonsil. Exosomes were purified, quantified by BCA protein assay and further validated by western blot analysis for the exosome markers CD9 and CD81 (FIG. 1E). To test whether they harbor neurite outgrowth activity, PC12 cells were treated with 3 μg exosomes, fixed 48 hours later and immunostained for β-III tubulin. Neurite outgrowth was quantified using the CellInSight™ CX7 High Content Analysis Platform and the number of neurites compared. The exosome yield from patient Pt1 was low allowing for analysis of only one replicate while quantities from Pt2 and Pt3 were sufficient for technical replicates. […]
The CellInSight CX7 High Content Analysis Platform performs automated cellular imaging for quantitative microscopy which was utilized to quantify neurite outgrowth. […]

In the case of “NGF: recombinant nerve growth factor, positive control for PC12 neurite outgrowth”, the “neurite outgrowth (number of β-III tubulin positive neurites)” value (PC12 cells fixed 48 hours after treatment, 3 μg exosomes or NGF 100 ng/ml) is reported as “robustly” and the “neurite outgrowth (total number of beta-III tubulin positive neurites per well)” value (PC12 cells, 24 hour stimulation, recombinant NGF 100 ng/ml set at 100%) is reported as “robust neurite outgrowth”.
